Data published in US8815814B2, “Cosmetic composition containing oligopeptides” (Cognis IP Management GmbH, priority 2010, dated 2014).
Residues, ends and D or L forms follow the SMILES beside them.

How the values were obtained:
collagen type I = assay: Collagen type I immuno-staining (ICC) in cultured human dermal fibroblasts; format: cell-based; details: peptide at 5.1 μg/ml; for % of staining occupation (collagen type I immuno-staining): human dermal fibroblasts, 72 hours incubation, sodium ascorbyl at 20 μg/ml, control 10.68 +/− 1, mean +/− SEM, 6 measures
Description: The peptide Acetyl-Val-Leu-Leu-Lys (SEQ ID NO:1)was incubated on human dermal fibroblasts cultured in vitro and the expression of the collagen type I was measured using an immunocytochemistry (ICC) method.
The human dermal fibroblasts were cultured within growth medium enriched with Foetal Calf Serum (FCS) at 10% and incubated for 2 days at 37° C. Then the growth medium was exchanged for a standard medium containing sodium ascorbyl at 5 μg/ml with FCS at 1% and with or without the Acetyl-Val-Leu-Leu-Lys (SEQ ID NO:1)peptide at 5.1 μg/ml. A positive control condition with sodium ascorbyl at 20 μg/ml was performed. Cells were incubated for 72 hours at 37° C. with the peptide. Cultured human dermal fibroblasts were fixed by acetone for 10 minutes at −20° C. and incubated for 1 hour at room temperature with a primary antibody against collagen type I [Abcam] diluted at 1/250. Fluorescein isothiocyanate (FITC) labelled secondary antibody [CliniSciences, France] was used for revelation. The obtained immuno-staining was observed using a confocal laser scanning microscope [TCS SPE, Leica, France] and quantified by an image analyzer [Quantimet Q5001W, Leica, France]. The staining occupation was evaluated. The results were presented as a mean +/−SEM (Standard Error of Mean) from 6 measures.

[1] = system: glutaredoxin-2 gene (GLRX2); assay: GLRX2 mRNA level by qRT-PCR in human dermal fibroblasts; format: cell-based; details: peptide at 1.0 μg/ml, 6 hours
Description: The peptide Acetyl-Val-Leu-Leu-Lys (SEQ ID NO:1) was incubated on human dermal fibroblasts cultured in vitro and the expression of the glutaredoxin-2 gene (GLRX2), involved in cellular anti-oxidative defenses) was measured using a qRT-PCR method.
The human dermal fibroblasts were cultured within growth medium enriched with FCS at 10% and incubated for 1 day at 37° C. Then the growth medium was exchanged for a standard medium without FCS with or without the Acetyl-Val-Leu-Leu-Lys (SEQ ID NO:1) peptide at 1.0 μg/ml. Cells were incubated for 6 hours at 37° C. before extraction of total RNA. The level of GLRX2 mRNAs was evaluated comparatively to the level of HPRT1 (hypoxanthine phosphoribosyltransferase 1) mRNA as housekeeping gene (qRT-PCR method) for each condition.
The results were calculated through the level of GLRX2 mRNA measured in the control condition (without peptide treatment) as 100% and presented as a mean +/−SEM from 3 assays in duplicated.

[2] = system: collagen type XIV gene (COL14A1); assay: COL14A1 mRNA level by qRT-PCR in human dermal fibroblasts; format: cell-based; details: peptide at 1.0 μg/ml; for level of COL14A1 mRNA (control = 100%): vs EEF1A1 housekeeping gene, mean +/− SEM
Description: The peptide Acetyl-Val-Leu-Leu-Lys (SEQ ID NO:1) was incubated on human dermal fibroblasts cultured in vitro and the expression of the collagen type XIV gene (COL14A1) was measured using a quantitative reverse-transcription and polymerase chain reaction (qRT-PCR) method.
(§1) The human dermal fibroblasts were cultured within growth medium enriched with FCS at 10% and incubated for 1 day at 37° C. Then the growth medium was exchanged for a standard medium without FCS but with or without the Acetyl-Val-Leu-Leu-Lys (SEQ ID NO:1) peptide at 1.0 μg/ml. Cells were then incubated for 24 hours, 48 hours or 72 hours at 37° C. before extraction of total RNA. The level of COL14A1 mRNAs in the different conditions was evaluated comparatively to the level of EEF1A1 mRNA as housekeeping gene (qRT-PCR method) for each condition.
The results were calculated through the level of COL14A1 mRNA measured in the control condition (without peptide treatment) for the different incubation times as 100% and presented as a mean+/−SEM from 3 or 5 assays in duplicate.

tropoelastin gene (ELN) = assay: ELN mRNA level by qRT-PCR in human dermal fibroblasts; format: cell-based; details: peptide at 1.0 μg/ml; for level of ELN mRNA (control = 100%): vs EEF1A1 housekeeping gene, mean +/− SEM
Description: The peptide Acetyl-Val-Leu-Leu-Lys (SEQ ID NO:1) was incubated on human dermal fibroblasts cultured in vitro and the expression of the tropoelastin gene (ELN) was measured using a qRT-PCR method.
as §1, with “were” for “were then”, “ELN” for “COL14A1”, “EEF1A 1” for “EEF1A1”, “condition. The results were calculated through the level of ELN mRNA measured in the control condition (without peptide treatment) as 100% and presented as a mean+/−SEM from 3 assays in duplicate.” for “condition.”

[3] = system: epithelial cells from rabbit cornea; details: Hara et al., Exp Eye Res, 2001; cited from earlier work
injured rabbit cornea = details: Hara et al., Exp Eye Res, 2001; cited from earlier work

Compound	% of staining occupation (collagen type I immuno-staining) (collagen type I)	effect on the level of collagen type I (in words) (collagen type I; compared with sodium ascorbyl at 20 μg/ml)	effect on the level of GLRX2 gene expression (in words) [1]	level of GLRX2 mRNA (control = 100%) ([1]; vs HPRT1 housekeeping gene, mean +/− SEM)	level of COL14A1 mRNA (control = 100%) ([2]; treatment duration 24 hours)	level of COL14A1 mRNA (control = 100%) ([2]; treatment duration 48 hours)	level of COL14A1 mRNA (control = 100%) ([2]; treatment duration 72 hours)	effect on the level of COL14A1 gene expression (in words) ([2]; detected after 24 hours, maintained during 3 days)	effect on the level of ELN gene expression (in words) (tropoelastin gene (ELN))	level of ELN mRNA (control = 100%) (tropoelastin gene (ELN); treatment duration 24 hours)	level of ELN mRNA (control = 100%) (tropoelastin gene (ELN); treatment duration 48 hours)	level of ELN mRNA (control = 100%) (tropoelastin gene (ELN); treatment duration 72 hours)	proliferation of epithelial cells from rabbit cornea (in words) [3]	wound healing activity on injured rabbit cornea (in words) (injured rabbit cornea)
CC(=O)N[C@H](C(=O)N[C@@H](CC(C)C)C(=O)N[C@@H](CC(C)C)C(=O)N[C@@H](CCCCN)C(=O)O)C(C)C [Acetyl-Val-Leu-Leu-Lys, N-Acetyl-Val-Leu-Leu-Lys-OH] (Ac-VLLK-OH)	31.07 +/− 2.22 (**) %	significantly increased	specifically increased	145 +/− 20 (*) %	175 +/− 23 (*) %	220 +/− 32 (*) %	213 +/− 27 (*) %	specifically and significantly increased	specifically and significantly increased	127 +/− 11 (*) %	143 +/− 10 (*) %	217 +/− 49 (*) %		
Sodium ascorbyl [reference compound]	18.01 +/− 1.07 (**) %													
Val-Leu-Leu-His (VLLH; tetrapeptide)													stimulate proliferation	significant wound healing activity
